Where two headings read alike, the source gives them in different places.
Experiments:
mGlu2 receptor = mGlu2 receptor (Homo sapiens, UniProt Q14416); assay: Potentiation of glutamate-induced increase in intracellular calcium with a mGluR2 expressing cell line (FLIPR); format: cell-based; design: expressed in transfected cells; host or cells: RGT cells (co-transfected with GLAST), stably transfected with Galpha15; conditions: for Emax / Emax at 1 µM / Emax at 3 µM: read-out: % Maximal Response (mean ± SD, n = 2); for Emax at 1 µM: 1 μM compound, no agonist, glutamate series 30 μM to 10 nM; for Emax at 3 µM: 3 μM compound, Buffer (no agonist)
Chain of mGlu2 receptor (Q14416 19-872): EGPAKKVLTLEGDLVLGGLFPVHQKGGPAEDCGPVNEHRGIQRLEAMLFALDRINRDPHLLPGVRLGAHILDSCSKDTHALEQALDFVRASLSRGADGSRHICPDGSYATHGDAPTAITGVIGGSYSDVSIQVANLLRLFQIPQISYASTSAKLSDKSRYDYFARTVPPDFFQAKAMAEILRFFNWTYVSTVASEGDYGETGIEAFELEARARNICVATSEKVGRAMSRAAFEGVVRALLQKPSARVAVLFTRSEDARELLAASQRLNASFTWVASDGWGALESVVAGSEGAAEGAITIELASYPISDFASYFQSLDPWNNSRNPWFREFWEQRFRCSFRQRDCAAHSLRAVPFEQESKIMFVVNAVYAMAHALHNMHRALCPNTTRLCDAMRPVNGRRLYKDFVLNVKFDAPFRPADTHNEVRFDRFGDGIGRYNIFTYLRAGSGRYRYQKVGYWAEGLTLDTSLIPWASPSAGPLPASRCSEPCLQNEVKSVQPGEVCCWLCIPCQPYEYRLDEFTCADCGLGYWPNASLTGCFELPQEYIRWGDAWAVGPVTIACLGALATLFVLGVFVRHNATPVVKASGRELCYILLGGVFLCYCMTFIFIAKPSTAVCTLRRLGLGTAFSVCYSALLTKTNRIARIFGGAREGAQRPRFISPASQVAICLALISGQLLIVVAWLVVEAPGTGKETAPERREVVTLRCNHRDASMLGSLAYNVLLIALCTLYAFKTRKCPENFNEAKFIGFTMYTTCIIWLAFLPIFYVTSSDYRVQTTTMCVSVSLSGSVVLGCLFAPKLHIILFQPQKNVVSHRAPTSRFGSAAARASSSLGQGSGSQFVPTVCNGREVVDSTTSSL
Method: Potentiation of Glutamate-Induced Increase in Intracellular Calcium with a mGluR2 Expressing Cell Line.
Cell lines expressing human mGlu2 receptors were derived as previously described (Desai, Burnett, Mayne, Schoepp, Mol. Pharmacol. 48, 648-657, 1995) and cultured in DMEM with 5% dialyzed fetal bovine serum, 1 mM glutamine, 1 mM sodium pyruvate, 50 μg/ml Geneticin G418, and 0.2 mg/ml hygromycin B. Confluent cultures were passaged weekly. […] The RGT cell line expressing the mGluR2 receptors was stably transfected with the promiscuous G-protein, Galpha15 to change the signaling pathway to the mGlu2 receptor to one that could be easily measured through release of intracellular calcium. Thus, intracellular calcium levels were monitored before and after the addition of drugs on a Fluorometric Imaging Plate Reader (i.e. FLIPR, Molecular Devices). The following buffer was used throughout as an assay buffer: 10 mM KCl, 138 mM NaCl, 5 mM Ca Cl2, 1 mM MgCl2, 4 mM NaH2PO4, 10 mM Glucose, 10 mM HEPES, pH 7.4. Cells that had been plated 48 h prior at a density of 30-40,000 cells per well in a 96-well plate were loaded with a calcium-sensitive dye for 90 min at 25° C. Fluo-3 (2 mM in DMSO, Molecular Probes) were mixed with a equal volume of 10% pluronic acid in DMSO, and diluted to 8 μM into the buffer described above containing 10% fetal bovine serum to make the loading buffer. Following loading of the cells, the loading buffer was removed and replaced with assay buffer prior to drug addition and monitoring on the FLIPR.

mice = assay: Electroshock-induced seizures (tonic extensor seizures); format: in vivo, mouse; conditions: electroshock 30 minutes later, percentage of mice protected from seizures
Method: Application of electrical stimulation by corneal electrodes to mice can induce tonic hindlimb-extensor seizures. Blockade of tonic extensor seizures induced by electroshock is considered predictive for drugs which block seizure propagation and may be effective in preventing various seizures in humans, including epileptic seizures.
Vehicle or a dose of a test drug are administered to groups of 5 to 10 mice each. Thirty minutes later, electroshock (10 mA, 0.2 sec duration) is administered by transcorneal electrodes. […] The data are reported as the percentage of mice which are protected from seizures.

[1] = 10 nM Glutamate + 1 μM compound
[2] = 30 nM Glutamate + 1 μM compound
[3] = 100 nM Glutamate + 1 μM compound
[4] = 300 nM Glutamate + 1 μM compound
[5] = 10 μM Glutamate + 1 μM compound
[6] = 30 μM Glutamate + 1 μM compound

For COc1ccccc1Oc1cccc(N(Cc2cccnc2)S(=O)(=O)CC(F)(F)F)c1 [Example 1, N-(3-(2-Methoxyphenoxy)phenyl)-N-(2,2,2-trifluoroethylsulfonyl)pyrid-3-ylmethylamine], the Emax (mGlu2 receptor; [1]) was -0.3 ± 0.2%, the Emax (mGlu2 receptor; [2]) was 2.2 ± 1.3% and the Emax (mGlu2 receptor; [3]) was 1.5 ± 1.2%. For the same molecule, the Emax (mGlu2 receptor; [4]) was 42.5 ± 4.3%, the Emax (mGlu2 receptor; 1 μM Glutamate + 1 μM compound) was 79.2 ± 14.6% and the Emax at 1 µM (mGlu2 receptor) was 0.1 ± 0.1%. The Emax (mGlu2 receptor; 3 μM Glutamate + 1 μM compound) was 112 ± 10.3%, the Emax (mGlu2 receptor; [5]) was 108 ± 10.7% and the “% Maximal Glutamate Response (as defined by 30 μM Glutamate) mean ± SD” value (mGlu2 receptor; 20 μM compound + 0.5 μM L-glutamate) was 85.5 ± 5.8%. The “% Maximal Glutamate Response (as defined by 30 μM Glutamate) mean ± SD” value (mGlu2 receptor; 20 μM compound alone) was 2.3 ± 0.8% and the Emax (mGlu2 receptor; [6]) was 117 ± 4.3%.
In the case of COc1ccccc1Oc1ccc(N(Cc2cccnc2)S(=O)(=O)CC(F)(F)F)cc1Cl [Example 9, N-(4-(2-Methoxyphenoxy)-3-chlorophenyl)-N-(2,2,2-trifluoroethylsulfonyl)pyrid-3-ylmethylamine], the Emax (mGlu2 receptor; [1]) is reported as 2.4 ± 0.3%, the Emax (mGlu2 receptor; [2]) is reported as 4.7 ± 0.4% and the Emax (mGlu2 receptor; [3]) is reported as 20.5 ± 4.3%. For the same molecule, the Emax (mGlu2 receptor; [4]) was 60 ± 10.6%, the Emax (mGlu2 receptor; 1 μM Glutamate + 1 μM compound) was 93.1 ± 2.5% and the Emax at 1 µM (mGlu2 receptor) was 4.2 ± 2.7%. It also gave an Emax (mGlu2 receptor; 3 μM Glutamate + 1 μM compound) of 102 ± 8.1%, an Emax (mGlu2 receptor; [5]) of 103 ± 6.2% and an Emax (mGlu2 receptor; [6]) of 108 ± 12.3%.
In the case of O=S(=O)(CC(F)(F)F)N(Cc1cccnc1)c1ccc(Oc2ccccc2)cc1 [Example 22, N-(4-(Phenoxy)phenyl)-N-(2,2,2-trifluoroethylsulfonyl)pyrid-3-ylmethylamine], the Emax (mGlu2 receptor; 1 nM APDC + 3 μM compound) is reported as 0.1 ± 0.7%, the Emax (mGlu2 receptor; 1 nM DCG IV + 3 μM compound) is reported as -0.1 ± 0.6% and the Emax (mGlu2 receptor; 30 nM APDC + 3 μM compound) is reported as 0.5 ± 1.5%. It also gave an Emax (mGlu2 receptor; 30 nM DCG IV + 3 μM compound) of 11.1 ± 6.1%, an Emax (mGlu2 receptor; 100 nM APDC + 3 μM compound) of 0.2 ± 0.6% and an Emax (mGlu2 receptor; 100 nM DCG IV + 3 μM compound) of 83.3 ± 10.5%. It also gave an Emax (mGlu2 receptor; 300 nM APDC + 3 μM compound) of 28.4 ± 1.7%, an Emax (mGlu2 receptor; 300 nM DCG IV + 3 μM compound) of 133 ± 5.5% and an Emax (mGlu2 receptor; 1 μM APDC + 3 μM compound) of 92 ± 3.4%. The Emax (mGlu2 receptor; 1 μM DCG IV + 3 μM compound) was 141 ± 5.9%, the Emax (mGlu2 receptor; 3 μM APDC + 3 μM compound) was 114 ± 0.8% and the Emax (mGlu2 receptor; 3 μM DCG IV + 3 μM compound) was 153 ± 2.8%. It also gave an Emax at 3 µM (mGlu2 receptor; APDC series) of 4.7 ± 0.4%, an Emax at 3 µM (mGlu2 receptor; DCG IV series) of 3.7 ± 1.4% and an Emax (mGlu2 receptor; 10 μM APDC + 3 μM compound) of 119 ± 4%. The Emax (mGlu2 receptor; 10 μM DCG IV + 3 μM compound) was 148 ± 1.5%, the Emax (mGlu2 receptor; 30 μM APDC + 3 μM compound) was 120 ± 10% and the Emax (mGlu2 receptor; 30 μM DCG IV + 3 μM compound) was 138 ± 7.1%.
Work on O=S(=O)(CC(F)(F)F)N(Cc1cccnc1)c1cccc(Oc2ccccc2O)c1 [Example 23, N-(3-(2-Hydroxyphenoxy)phenyl)-N-(2,2,2-trifluoroethylsulfonyl)pyrid-3-ylmethylamine] yielded a melting point of 57.5 to 60 °C.
For CCS(=O)(=O)N(Cc1cccnc1)c1cccc(-c2ccc(C#N)cc2)c1 [Example 590], the “Percent Protection” value (mice; 30 mg/kg ip) was 60% and the “Percent Protection” value (mice; 100 mg/kg ip) was 100%.
In the case of CCS(=O)(=O)N(Cc1cccnc1F)c1ccc(Oc2ccc(F)cc2F)cc1 [Example 615, N-(4-(2,4-Difluorophenoxy)phenyl)-N-(ethanesulfonyl)-2-fluoropyrid-3-ylmethylamine], the melting point is reported as 110 to 112 °C.
For N[C@@H](CCC(=O)O)C(=O)O [Glutamate, L-glutamate, reference compound], the “% Maximal Glutamate Response (as defined by 30 μM Glutamate) mean ± SD” value (mGlu2 receptor; 0.5 μM L-glutamate alone) was 1.9 ± 1.0%.

From patent US6800651B2 (Eli Lilly and Company, priority 2000, dated 2004)
